For one test, the system named is thoracic aorta. Kind of test: Vasorelaxing action in vitro: relaxation of 30 mM K+ contraction of aortic rings. In kind it is cell-based, Sprague-Dawley (Crj) male rat. Particulars: contraction at 30 mM K+ taken as 100%. As to the method:
The thoracic aorta was excised from a Sprague-Dawley (Crj) male rat weighing between 350 and 550 g, and dissected free from surrounding connective tissue. The vessel was cut into a ring having a width of 2 to 3 mm. The resulting preparation was mounted for isometric tension recording in an organ bath filled with 10 ml of a Krebs-Henseleit solution (K-H solution, pH 7.4, 37°C), which was bubbled with 95% 02/5% CO2. Isometric tension changes were monitored with an isometric tranducer (TB-611T, manufactured by Nihon Kohden Corp.). Before starting the experiment, the preparation was given a stretched tension of 2 g and allowed to equilibrate for 30 minutes (the K-H solution was exchanged for a fresh one every 15 minutes). At first, the preparation was precontracted by changing the solution in the bath to one containing 30 mM K^+. After the contraction was maintained for 20 minutes, the preparation was washed with K-H solution. Sixty minutes thereafter (the K-H solution was exchanged with a fresh one every 20 minutes), contraction was again induced in the same manner as described above. […]

In a further test the test system is rabbit LDL. The experiment in a line: Inhibitory action on lipid peroxidation in vitro, Method A: oxidation of LDL by soybean lipoxygenase, fluorescence of LDL fraction. In kind it is biochemical. The note with it: fluorescence intensity of oxidized LDL fraction, SLO 40 µg/ml, 37°C, 24 hours. How it is done:
A test compound was added to rabbit LDL prepared according to the method of Havel, et al. (Havel RJ et al., J. Clin. Invest., 34, 1345 (1955)), and then a soybean lipoxygenase type-IS (SLO) was added to a final concentration of 40 µg/ml. Oxidation of LDL was carried out at 37°C in a CO2 incubator for 24 hours. The oxidized LDL solution was separated by gel-permeation chromatography, and the fluorescence intensity of the LDL fraction was measured at an excitation wavelength of 360 nm and an emission wavelength of 430 nm.

Test [1] relates to Thoracic aorta preparations from rats. The experiment in a line: Vasorelaxing action in vitro: effect on CaCl2-induced contractions. The note with it: Fig. 1; CaCl2 0.01 - 10 mM in 60 mM K+ PSS; compared with diltiazem. In kind it is cell-based. How it is done:
Thoracic aorta preparations from rats were stabilized in normal physiological salt solution (PSS) for at least 30 min, contracted with 60 mM KCl and, thereafter, relaxed with normal PSS. Twenty minutes later, the preparations were exposed to Ca^2+ -free 60 mM K^+ PSS (containing 0.1 mM EGTA) for 20 min, then to nominally Ca^2+ -free 60 mM K^+ PSS which is free of EGTA for 20 min, followed by cumulative application of CaCl2 (0.01 - 10 mM) to construct a dose-response curve. […] The response was converted to percent contraction, with the contraction caused by 10 mM CaCl2 being taken as 100%. The data in Fig. 1 are expressed by the mean of 5 cases ± standard error.

In test [2] the test system is Isolated ventricular myocytes. Kind of test: Inhibitory action on calcium overload in vitro, Method B: veratridine-treated myocytes. In kind it is cell-based, male Sprague-Dawley rat. The note with it: veratridine 50 µg/ml, read-out: Concentration at Which Cells Survived Almost Completely. As to the method: (§1) Isolated ventricular myocytes were prepared from the heart of male Sprague-Dawley rat weighing 300 to 500 g, using an enzyme-perfusion method. […]
The efficacy was evaluated in the same manner as in Method A, except for using 50 µg/ml of veratridine in place of veratrine (100 µg/ml).

Test [3] deals with coronary preparations from dogs. Kind of test: Antispasmodic action in vitro: 3,4-diaminopyridine-induced rhythmic contractions. The format is cell-based. The note with it: Fig. 2; 3,4-DAP 10 mM; compared with diltiazem. How it is done:
Following repeated replacements of PSS in an organ bath at 15-min intervals, the tension on each of the coronary preparations from dogs stabilized at 2 g; then, PSS was replaced by a 30 mM K^+ PSS to contract the preparations. The 30mM K^+ PSS was replaced by normal PSS in an organ bath to relax the preparations, followed by replacements with PSS at 20-min intervals to stabilize the tension for about 1 h, followed by the addition of 3,4-DAP (10 mM) to induce rhythmic contractions. […] The drug concentration allowing for complete suppression of the amplitude of the 3,4-DAP-induced rhythmic contractions may be designated "elimination dose".

Test [4] relates to Isolated ventricular myocytes. The experiment in a line: Inhibitory action on calcium overload in vitro, Method A: veratrine-treated myocytes, survival rate. Details: key: ++: The cells survived almost completely at 10^-7 M.; +: The cells survived almost completely at 10^-6 M.; The cells died almost completely at 10 M^-6 M. In kind it is cell-based, male Sprague-Dawley rat. Particulars: 30 minutes pretreatment, veratrine 100 µg/ml, observed five minutes later. As to the method: as §1

The subject of another test is Male Sprague-Dawley rats. The experiment in a line: Preventive effect on ventricular arrhythmia caused by occlusion and reperfusion of the coronary artery. In kind it is in vivo. Particulars: Fig. 4; 0.5, 1 and 3 mg/kg via femoral vein 10 min before occlusion; compared with diltiazem 1 and 3 mg/kg. How it is done: Male Sprague-Dawley rats (450 - 600 g) were anethetized with pentobarbital, subjected to thoracotomy under artificial respiration, had the arterior descending branch of the left coronary artery occluded with a silk ligature for 5 min, had the occlusion removed to permit reperfusion and examined for 10 min. A standard limb lead II electrocardiogram was recorded to check for the occurrence of ventricular arrythmia. […] The parethesized numeral at the bottom of each bar in Fig. 4 represents the number of cases.

Read-outs that look alike come from different tables or passages of the source.

In general, IC50 refers to the midpoint of a concentration-inhibition curve.

As to `CN(CCCOc1ccc2c(c1)OCO2)CCCN1C(=O)CSC1c1cc(C(C)(C)C)c(O)c(C(C)(C)C)c1` (centres unmarked) [Compound 17], inhibition with thoracic aorta (Rattus norvegicus) was half-maximal at 28 nM (IC50). Moreover, the “Percent (%) of Control” value in the test with rabbit LDL (5 x 10^-6 M) was found to be 3.9%.
In the test on thoracic aorta, `CC1SC(c2cc(C(C)(C)C)c(O)c(C(C)(C)C)c2)N(CCCN(C)CCOc2ccc3c(c2)OCO3)C1=O` (centres unmarked) [Compound 41, 2-(3,5-Di-tert-butyl-4-hydroxyphenyl)-3-[3-[N-methyl-N-[2-(3,4-methylenedioxyphenoxy)ethyl]amino]propyl]-5-methyl-1,3-thiazolidin-4-one] returned an IC50 of 56 nM. The “Percent (%) of Control” value in the test on rabbit LDL (5 x 10^-6 M) is on record as 6.2%.
Take `COc1ccc(CN(C)CCCN2C(=O)CSC2c2cc(C(C)(C)C)c(O)c(C(C)(C)C)c2)cc1OC` (centres unmarked) [Compound 19]: in the test with thoracic aorta (Rattus norvegicus), the midpoint of inhibition, the IC50, lay at 110 nM.
`CN(CCCN1C(=O)CSC1c1cc(C(C)(C)C)c(O)c(C(C)(C)C)c1)CCOc1ccc2c(c1)OCO2` (single isomer, unassigned; (-)) [Compound 71, (-)-2-(3,5-Di-tert-butyl-4-hydroxyphenyl)-3-[3-[N-methyl-N-[2-(3,4-methylenedioxyphenoxy)ethyl]amino]propyl]-1,3-thiazolidin-4-one]: in the test on thoracic aorta, it took 27 nM to reach half-maximal inhibition (IC50). Moreover, the “inhibitory action against the contraction caused by CaCl2” value in test [1] is “need be applied in a by far smaller amount than diltiazem to exhibit an outstanding inhibitory action”. For the same molecule, the “Percent (%) of Control” value in the test with rabbit LDL (5 x 10^-6 M, 5 µM) was determined as 2.8%. In addition, the minimal effective concentration in test [2] amounted to 0.32 µM. Also, the “suppression of 3,4-DAP-induced rhythmic contractions” value in test [3] is “capable of suppressing the 3,4-DAP-induced rhythmic contractions at a lower concentration than diltiazem”.
On to `CN(CCCCCN1C(=O)CSC1c1cc(C(C)(C)C)c(O)c(C(C)(C)C)c1)CCOc1ccc2c(c1)OCO2` (centres unmarked) [Compound 9], for which the IC50 with thoracic aorta (Rattus norvegicus) turned out to be 28 nM. In the test on rabbit LDL (5 x 10^-6 M), the “Percent (%) of Control” value is 5.9%. The “Survival Rate of Cells” value in test [4] was “++”.
In turn, `CN(CCCN1C(=O)CSC1c1cc(C(C)(C)C)c(O)c(C(C)(C)C)c1)CCOc1ccc2c(c1)OCO2` (single isomer, unassigned; (+)) [Compound 70, (+)-2-(3,5-Di-tert-butyl-4-hydroxyphenyl)-3-[3-[N-methyl-N-[2-(3,4-methylenedioxyphenoxy)ethyl]amino]propyl]-1,3-thiazolidin-4-one] registered an IC50 in the test on thoracic aorta of 300 nM. Further, the “Percent (%) of Control” value with rabbit LDL (5 x 10^-6 M, 5 µM) was 5.1%. Moreover, the minimal effective concentration in test [2] (Rattus norvegicus, Ventricular myocyte) was found to be 0.32 µM.
For `CCN(CCCN1C(=O)CSC1c1cc(C(C)(C)C)c(O)c(C(C)(C)C)c1)CCOc1ccc2c(c1)OCO2` (centres unmarked) [Compound 12], the IC50 in the test with thoracic aorta (Rattus norvegicus) was 63 nM. For the same molecule, in the test with rabbit LDL (5 x 10^-6 M), the “Percent (%) of Control” value was 6.4%. In addition, the “Survival Rate of Cells” value in test [4] was “++”.
`CC(C)c1cc(C2SCC(=O)N2CCCN(C)CCOc2ccc3c(c2)OCO3)cc(C(C)C)c1O` (centres unmarked) [Compound 1, 2-(3,5-Diisopropyl-4-hydroxyphenyl)-3-[3-[N-methyl-N-[2-(3,4-methylenedioxyphenoxy)ethyl]amino]propyl]-1,3-thiazolidin-4-one] returned an IC50 in the test with thoracic aorta (Rattus norvegicus) of 170 nM.
As for `CC1SC(c2cc(C(C)(C)C)c(O)c(C(C)(C)C)c2)N(CCCN(C)CCOc2ccc3c(c2)OCO3)C1=O` (stereo not drawn) [Compound 72, 2,5-Trans-2-(3,5-di-tert-butyl-4-hydroxyphenyl)-3-[3-[N-methyl-[2-(3,4-methylenedioxyphenoxy)ethyl]amino]propyl]-5-methyl-1,3-thiazolidin-4-one], half-maximal inhibition with thoracic aorta (Rattus norvegicus) (IC50) required 98 nM.
Turning to `CC1SC(c2cc(C(C)(C)C)c(O)c(C(C)(C)C)c2)N(CCCN(C)CCOc2ccc3c(c2)OCO3)C1=O` (single isomer, unassigned; (-)) [Compound 75, (-)-2,5-Cis-2-[3,5-di-tert-butyl-4-hydroxyphenyl)-3-[3-[N-methyl-N-[2-(3,4-methylenedioxyphenoxy)ethyl]amino]propyl]-5-methyl-1,3-thiazolidin-4-one], the IC50 in the test with thoracic aorta is 22 nM. In addition, the minimal effective concentration in test [2] was determined as 0.32 µM.
`CN(CCCN1C(=O)CSC1c1cc(C(C)(C)C)c(O)c(C(C)(C)C)c1)CCOc1ccc2c(c1)OCO2` (centres unmarked) [Compound 26, 2-(3,5-Di-tert-butyl-4-hydroxyphenyl)-3-[3-[N-methyl-N-[2-(3,4-methylenedioxyphenoxy)ethyl]amino]propyl]-1,3-thiazolidin-4-one] had an IC50 with thoracic aorta of 37 nM. Further, the incidence of arrhythmia entry in the test with Male Sprague-Dawley rats is on record as “by far superior effect to diltiazem in decreasing the incidnece of arrhythmia”. Moreover, the “Survival Rate of Cells” value in test [4] is “++”.
The molecule `CC1SC(c2cc(C(C)(C)C)c(O)c(C(C)(C)C)c2)N(CCCN(C)CCOc2ccc3c(c2)OCO3)C1=O` (stereo not drawn) [Compound 73, 2,5-Cis-2-(3,5-di-tert-butyl-4-hydroxyphenyl)-3-[3-[N-methyl-N-[2-(3,4-methylenedioxyphenoxy)ethyl]amino]propyl]-5-methyl-1,3-thiazolidin-4-one] gave an IC50 with thoracic aorta of 49 nM. Besides, the minimal effective concentration in test [2] is listed as 0.32 µM.
As to `COc1ccc(CCN(C)CCCN2C(=O)CSC2c2cc(C(C)(C)C)c(O)c(C(C)(C)C)c2)cc1OC` (centres unmarked) [Compound 20], the “Percent (%) of Control” value came to 0.6% with rabbit LDL (5 x 10^-6 M) and 8.7% with rabbit LDL (5 x 10^-7 M, 0.5 µM). The “Survival Rate of Cells” value in test [4] is “+”.
`CC1SC(c2cc(C(C)(C)C)c(O)c(C(C)(C)C)c2)N(CCCN(C)CCOc2ccc3c(c2)OCO3)C1=O` (single isomer, unassigned; (+)) [Compound 74, (+)-2,5-Cis-2-[3,5-di-tert-butyl-4-hydroxyphenyl)-3-[3-[N-methyl-N-[2-(3,4-methylenedioxyphenoxy)ethyl]amino]propyl]-5-methyl-1,3-thiazolidin-4-one] returned an IC50 with thoracic aorta of 141 nM.
Turning to `COc1c(C(C)(C)C)cc(C2SCC(=O)N2CCCN(C)CCOc2ccc3c(c2)OCO3)cc1C(C)(C)C` (centres unmarked) [Compound 11], the midpoint of inhibition in the test on thoracic aorta (Rattus norvegicus), the IC50, lay at 21 nM.
Still for that read-out and setting: to `CN(CCCN1C(=O)C(OCCO)SC1c1cc(C(C)(C)C)c(O)c(C(C)(C)C)c1)CCOc1ccc2c(c1)OCO2` (centres unmarked) [Compound 55] belongs 21 nM; to `CN(CCCN1C(=O)C(CCO)SC1c1cc(C(C)(C)C)c(O)c(C(C)(C)C)c1)CCOc1ccc2c(c1)OCO2` (centres unmarked) [Compound 49, 2-(3,5-Di-tert-butyl-4-hydroxyphenyl)-3-[3-[N-methyl-N-[2-(3,4-methylenedioxyphenoxy)ethyl]amino]propyl]-5-(2-hydroxyethyl)-1,3-thiazolidin-4-one], 23 nM.
Take `COc1ccc([C@@H]2Sc3ccccc3N(CCN(C)C)C(=O)[C@@H]2OC(C)=O)cc1` [Diltiazem, reference compound]: the “Survival Rate of Cells” value in test [4] was “-”.
Molecule `CN(CCCCN1C(=O)CSC1c1cc(C(C)(C)C)c(O)c(C(C)(C)C)c1)CCOc1ccc2c(c1)OCO2` (centres unmarked) [Compound 8] returned an IC50 in the test with thoracic aorta (Rattus norvegicus) of 170 nM. For the same molecule, the “Survival Rate of Cells” value in test [4] is “++”.

Values taken from patent EP0799614A1, “REMEDY FOR ISCHEMIC DISEASES” (CHUGAI SEIYAKU KABUSHIKI KAISHA, priority 1994, dated 1996).
